These are literature values, as cited in patent publication US20160193276A1 (Teva Pharmaceutical Industries, Ltd., priority 2012, published 2016).

The test system of one data set is MS patients. As to conditions: 20 mg/day subcutaneous (s.c.).
A further data set deals with mice. The conditions noted are these: orally administered.
Data set [1] deals with patients with relapsing multiple sclerosis. As to conditions: administered orally.
For another data set, the system named is rats. As to conditions: orally administered.

For the substance “L-glutamic acid polymer with L-alanine, L-lysine, L-tyrosine, acetate (salt) [glatiramer acetate]”, in the data set on MS patients, the “Total number of enhancing lesions as measured by MRI” value is listed as “reduce”. Also, the “Induction of EAE” value with mice and in the data set with rats was “inhibited” in each case. Further, in data set [1], the “Relapse rate or other clinical MRI parameters of disease activity” value is “did not affect”.
